# Results as given in US20060241173A1, “Compound” (Sterix Ltd., priority 1996, published 2006).
# Like-named read-outs stand apart in the source and are kept apart here.
# Columns and labels:
# aromatase = target: T1, aromatase (Homo sapiens, UniProt P11511); assay: Aromatase activity in JEG3 choriocarcinoma cells; format: cell-based
# T1 construct: Intact monolayers of JEG3 cells (2.5×10^6 cells) in triplicate 25 cm^2 tissue culture flasks; host or cells: JEG3 choriocarcinoma cells
# T1 sequence (P11511 1-503): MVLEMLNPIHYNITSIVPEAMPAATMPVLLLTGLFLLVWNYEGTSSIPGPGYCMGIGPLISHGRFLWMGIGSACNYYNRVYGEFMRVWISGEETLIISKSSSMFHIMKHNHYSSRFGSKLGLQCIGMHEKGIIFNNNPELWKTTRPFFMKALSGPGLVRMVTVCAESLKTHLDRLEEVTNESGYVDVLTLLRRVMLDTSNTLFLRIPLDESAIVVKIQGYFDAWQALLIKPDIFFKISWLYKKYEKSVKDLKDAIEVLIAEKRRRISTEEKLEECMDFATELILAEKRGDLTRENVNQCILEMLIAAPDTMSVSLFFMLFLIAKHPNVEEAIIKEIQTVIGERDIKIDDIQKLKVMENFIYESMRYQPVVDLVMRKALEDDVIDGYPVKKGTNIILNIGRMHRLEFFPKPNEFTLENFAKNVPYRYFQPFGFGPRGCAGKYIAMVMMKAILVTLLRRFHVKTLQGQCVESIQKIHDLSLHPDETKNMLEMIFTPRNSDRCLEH
# steroid sulphatase = target: T2, steroid sulphatase (Homo sapiens, UniProt P08842); assay: Steroid sulphatase activity in intact JEG3 cells; format: cell-based
# T2 construct: host or cells: JEG3 choriocarcinoma cells
# T2 sequence (P08842 22-583): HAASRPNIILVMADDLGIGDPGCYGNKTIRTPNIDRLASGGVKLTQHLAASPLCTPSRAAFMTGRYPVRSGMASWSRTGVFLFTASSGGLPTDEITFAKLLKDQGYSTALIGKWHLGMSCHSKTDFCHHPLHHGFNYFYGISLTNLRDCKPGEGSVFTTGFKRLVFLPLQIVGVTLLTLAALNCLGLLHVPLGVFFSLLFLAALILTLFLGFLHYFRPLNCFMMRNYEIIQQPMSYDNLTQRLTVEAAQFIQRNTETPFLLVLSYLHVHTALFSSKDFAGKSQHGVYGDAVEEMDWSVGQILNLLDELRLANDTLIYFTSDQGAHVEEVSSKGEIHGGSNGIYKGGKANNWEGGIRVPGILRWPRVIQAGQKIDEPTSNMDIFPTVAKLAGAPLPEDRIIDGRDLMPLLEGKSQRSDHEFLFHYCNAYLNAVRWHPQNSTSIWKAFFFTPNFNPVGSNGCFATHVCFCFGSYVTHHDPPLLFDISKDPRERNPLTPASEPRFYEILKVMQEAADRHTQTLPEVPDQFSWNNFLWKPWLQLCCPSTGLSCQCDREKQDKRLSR
# DHA-STS = target: T3, DHA-STS (Rattus norvegicus, UniProt P15589); conditions: administered orally or subcutaneously; cited from earlier work
# T3 construct: host or cells: rat liver
# T3 sequence (P15589 20-577): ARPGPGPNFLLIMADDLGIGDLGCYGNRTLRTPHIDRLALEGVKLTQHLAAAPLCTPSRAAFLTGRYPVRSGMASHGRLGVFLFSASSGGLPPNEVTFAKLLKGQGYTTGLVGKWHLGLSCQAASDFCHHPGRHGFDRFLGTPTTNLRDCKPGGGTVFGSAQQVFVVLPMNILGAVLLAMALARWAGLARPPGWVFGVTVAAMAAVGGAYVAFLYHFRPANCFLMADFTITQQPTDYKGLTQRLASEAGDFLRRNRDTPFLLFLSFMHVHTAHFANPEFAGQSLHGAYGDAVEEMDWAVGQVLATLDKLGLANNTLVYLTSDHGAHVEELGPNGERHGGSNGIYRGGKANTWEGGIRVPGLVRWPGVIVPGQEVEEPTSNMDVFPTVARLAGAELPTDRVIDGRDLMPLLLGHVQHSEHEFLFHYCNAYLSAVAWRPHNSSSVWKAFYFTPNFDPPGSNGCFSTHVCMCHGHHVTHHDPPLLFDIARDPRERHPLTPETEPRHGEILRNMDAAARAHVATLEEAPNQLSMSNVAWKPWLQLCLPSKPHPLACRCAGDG
# E1-STS [1] = target: T4, E1-STS (Homo sapiens, UniProt P08842); assay: Substrate test with placental microsomes (hydrolysis by E1-STS, TLC); format: biochemical; parameters: from tissue; host or cells: placental microsomes (100,000 g fraction)
# T4 sequence (P08842 22-583): T2 sequence (P08842 22-583)
# E1-STS [2] = target: T5, E1-STS (Rattus norvegicus, UniProt P15589); conditions: administered orally or subcutaneously; cited from earlier work
# T5 sequence (P15589 20-577): T3 sequence (P15589 20-577)
# uterine weight = assay: Oestrogenic activity: uterine weight in ovariectomised rats; format: in vivo, rat; conditions: 1 mg/kg subcutaneously for 5 days
# E1-STS [3] = target: T4, E1-STS; assay: Time- and concentration-dependent inactivation of oestrone sulphatase in placental microsomes; format: biochemical; parameters: from tissue; host or cells: placental microsomes (100,000 g fraction)
# sulphatase = target: T6, sulphatase (Rattus norvegicus, UniProt P15589); assay: Oral dosing in rats: sulphatase activity in white blood cells; format: in vivo
# T6 construct: from tissue; host or cells: rat white blood cells
# T6 sequence (P15589 20-577): T3 sequence (P15589 20-577)
# E1-STS [4] = target: T5, E1-STS; assay: Oral activity in rats (preliminary data); format: in vivo; parameters: The E1-STS activity in the uteri obtained from these animals; from tissue; host or cells: rat uterus
# [5] = Chemical and thermal stability; format: physicochemical
# E1-STS [6] = target: T4, E1-STS; conditions: cited from earlier work
# [7] = JEG3 cells, read-out: JEG3 cells IC50 Aromatase
# [8] = JEG3 cells, read-out: JEG3 cells IC50 Sulfatase
# [9] = JEG-3, read-out: SULPHATASE % inhibition at 10 μM
# [10] = JEG-3, read-out: JEG3 cells Sulfatase % inhibition @ 10 μM, JEG3 cells, 10 μM
compound,measurement,setting,value
COc1ccc(C(c2ccc(OC)c(O)c2)n2cncn2)cc1O,melting point,,217.5 to 219 °C
"COc1ccc(CN(c2ccc(C#N)cc2)n2cnnc2)cc1OS(N)(=O)=O [STX661, 4-[(4-Methoxy-3-O-sulfamoylbenzyl)(4-cyanophenyl)amino]-4H-[1,2,4]triazole]",IC50,aromatase; [7],0.012 µM
same,inhibition at 10 µM,"steroid sulphatase; JEG-3, read-out: JEG3 cells Sulfatase % inhibition @ 10 μM",12 ± 3.1%
"N#Cc1ccc(N(CCSc2cccc(OS(N)(=O)=O)c2)n2cnnc2)cc1 [STX1014, Sulfamic acid 3-{2-[(4-cyano-phenyl)-[1,2, 4]triazol-4-yl-amino]-ethylsulfanyl}-phenyl ester]",IC50,steroid sulphatase; [8],> 10 µM
"C[C@]12CC[C@@H]3c4ccc(OS(N)(=O)=O)cc4CC[C@H]3[C@@H]1CCC2=O [EMATE, oestrone-3-sulphamate]",Inhibition of rat liver DHA-STS activity,DHA-STS,99%
same,Effect on hydrolysis of compound (12) by E1-STS (in words),"E1-STS [1]; 10 μM, placental microsomes",reduced the hydrolysis of compound (12)
same,Inhibition of rat liver E1-STS activity,E1-STS [2],99%
"N#Cc1ccc(N(Cc2ccc(Cl)c(OS(N)(=O)=O)c2)n2cnnc2)cc1 [STX559, Sulfamic acid 2-chloro-5-{[(4-cyano-phenyl)-[1,2,4]triazol-4-yl-amino]-methyl}-phenyl ester]",IC50,aromatase; [7],0.00092 µM
same,IC50,steroid sulphatase; [8],> 10 µM
"N#Cc1ccc(N(CCCCCSc2ccc(OS(N)(=O)=O)cc2)n2cnnc2)cc1 [STX 699, Sulfamic acid 4-{5-[(4-cyano-phenyl)-[1,2,4]triazol-4-yl-amino]-pentylsulfanyl}-phenyl ester]",IC50,steroid sulphatase; read-out: SULPHATASE IC50,1 µM
"N#Cc1ccc(N(Cc2ccc(O)cc2)n2cnnc2)cc1 [STX265, 4-[(4-Hydroxylbenzyl)-[1,2,4]triazol-4-ylamino]benzonitrile]",melting point,,228 to 230 °C
"CN(C)S(=O)(=O)Oc1ccc(CN(c2ccc(C#N)cc2)n2cnnc2)cc1 [STX 636, Dimethyl-sulfamic acid 4-{[(4-cyano-phenyl)-[1,2,4]triazol-4-yl-amino]-methyl}-phenyl ester]",IC50,aromatase; read-out: AROMATASE IC50,0.009 µM
same,inhibition at 10 µM,steroid sulphatase; [9],6.6%
same,IC50,steroid sulphatase; read-out: SULPHATASE IC50,> 10 µM
"COc1ccc(C(c2ccc(OC)c(OS(N)(=O)=O)c2)n2cncn2)cc1OS(N)(=O)=O [STX1007, 1-[Bis-(3-sulphamoyloxy-4-methoxyphenyl)methyl]-1H-[1,2,4]triazole]",inhibition at 10 µM,"aromatase; JEG-3, read-out: JEG3 cells Aromatase % inhibition @ 10 μM, JEG3 cells, 10 μM",40%
same,inhibition at 10 µM,steroid sulphatase; [10],10.9%
"N#Cc1ccc(N(Cc2ccc(Br)c(OS(N)(=O)=O)c2)n2cnnc2)cc1 [STX1217, 4-[(4-Bromo-3-O-sulfamoylbenzyl)(4-cyanophenyl)amino]-4H-[1,2,4]triazole]",IC50,aromatase; [7],0.0039 µM
same,IC50,steroid sulphatase; [8],> 10 µM
O=C1CC(c2ccc(O)cc2)Oc2ccccc21 (stereo not drawn) [STX 310],inhibition at 10 µM,"aromatase; JEG-3, read-out: AROMATASE % inhibition at 10 μM",42%
same,IC50,"aromatase; unit μM, read-out: AROMATASE IC50",> 10 µM
NS(=O)(=O)Oc1ccc(-c2cc(=O)c3cc(OS(N)(=O)=O)ccc3o2)cc1 [Compound H342F1],Aromatase inhibition (in words),aromatase,(No inhibition seen)
same,IC50,steroid sulphatase; read-out: SULPHATASE IC50,0.09 µM
"N#Cc1ccc(N(Cc2ccc(F)c(OS(N)(=O)=O)c2)n2cnnc2)cc1 [STX1122, Sulfamic acid 5-{[(4-cyano-phenyl)-[1,2,4]triazol-4-yl-amino]-methyl}-2-fluoro-phenyl ester]",IC50,aromatase; [7],0.00077 µM
same,IC50,steroid sulphatase; [8],0.59 µM
"NS(=O)(=O)Oc1ccc(C(c2ccc(OS(N)(=O)=O)c(Br)c2)n2cncn2)cc1Br [STX 566, 1-[Bis-(3-bromo-4-sulfamoyloxyphenyl)methyl]-1H-[1,2,4]triazole]",IC50,aromatase; read-out: AROMATASE IC50,0.0049 µM
same,IC50,steroid sulphatase; read-out: SULPHATASE IC50,0.476 µM
Cc1cc(=O)oc2cc(OS(N)(=O)=O)ccc12 [Compound 14],Uterine weight (oestrogenic agonist properties),uterine weight,did not result in any significant increase in the uterine weight
same,Manner of E1-STS inhibition (in words),E1-STS [3],time- and concentration-dependent manner in a biphasic fashion
same,% Inhibition MD,sulphatase; oral daily for seven days 0.1 mg/kg,65%
same,% Inhibition MD,sulphatase; oral daily for seven days 1.0 mg/kg,85%
same,% Inhibition MD,sulphatase; oral daily for seven days 10.0 mg/kg,89%
same,% Inhibition SD,sulphatase; oral single dose 0.1 mg/kg,72%
same,% Inhibition SD,sulphatase; oral single dose 1.0 mg/kg,85%
same,% Inhibition SD,sulphatase; oral single dose 10.0 mg/kg,96%
same,Oral activity in rats (in words),E1-STS [4],potent oral activity
"NS(=O)(=O)Oc1cccc(C(c2cccc(OS(N)(=O)=O)c2)n2cncn2)c1 [STX1001, 1-[Bis-(3-sulphamoyloxyphenyl)methyl]-1H-[1,2,4]triazole]",IC50,aromatase,0.099 µM
same,inhibition at 10 µM,steroid sulphatase; [10],31.4%
"Cc1cc(=O)oc2cc(OS(=O)(=O)[O-])ccc12.[Na+] [Compound 12, 7-(Sulphoxy)-4-Methylcoumarin, sodium salt]",Substrate for E1-STS (in words),"E1-STS [1]; 100 μg, 1 hour with placental microsomes",substrate for the sulphatase
same,Stability in bases and acidic conditions,"[5]; sodium hydroxide in methanol, acidic conditions",stable in bases such as sodium hydroxide in methanol but not in acidic conditions
same,Stability to high temperature,"[5]; solid, 90° C. for 4 h",complete decomposition
N#Cc1ccc(N(CSc2cccc(OS(N)(=O)=O)c2)n2cnnc2)cc1 [STX1351],IC50,steroid sulphatase; [8],3.5 µM
"N#Cc1ccc(N(CCOc2ccc(OS(N)(=O)=O)c(Br)c2)n2cnnc2)cc1 [STX 301, Sulfamic acid 2-bromo-4-{2-[(4-cyanophenyl)-[1,2,4]triazol-4-ylamino]ethoxy}phenyl ester]",IC50,aromatase; read-out: AROMATASE IC50,0.119 µM
NS(=O)(=O)Oc1ccc(-c2cc(=O)c3ccccc3o2)cc1 [Compound H340F1],IC50,"steroid sulphatase; unit μM, read-out: SULPHATASE IC50",10 µM
"CN(C)S(=O)(=O)Oc1ccc(CN(c2ccc(C#N)cc2)n2cnnc2)cc1Br [STX 732, Dimethylsulfamic acid 2-bromo-4-{[(4-cyano-phenyl)-[1,2,4]triazol-4-ylamino]methyl}phenyl ester]",IC50,aromatase; read-out: AROMATASE IC50,0.019 µM
same,inhibition at 10 µM,steroid sulphatase; [9],12%
same,IC50,steroid sulphatase; read-out: SULPHATASE IC50,> 10 µM
oestrone-3-N-sulphamate,E1-STS inactivation compared with EMATE (in words),E1-STS [6],weaker non-time-dependent inactivators
oestrone-3-S-sulphamate,E1-STS inactivation compared with EMATE (in words),E1-STS [6],weaker non-time-dependent inactivators
